Test: Biodistribution: SPECT/CT time-activity curves (fraction of injected activity), whole-body half-lives
Assay type: in vivo, human
Settings: Cycle 1
Procedure: This Example presents the biodistribution, dosimetry, and pharmacokinetics (PK) results of a PK/Dosimetry sub-study performed as part of a Phase III trial. Twenty-seven (27) patients were administered a target activity of 7.4±10% GBq of ^177Lu-PSMA-I&T and underwent single photon emission computed tomography (SPECT)/computed tomography (CT) imaging at four timepoints (4 h, 24 h, 48 h, and 168 h). Image data was analysed to compute time-activity curves (TACs) and subsequently time-integrated activity coefficients (TIACs) in each organ of interest and in organs showing appreciable and meaningful ^177Lu-PSMA-I&T activity. Organ Level Internal Dose Assessment (OLINDA 2.2.3) was used to compute organ and whole body absorbed radiation doses for each patient.
All participating sites underwent a rigorous site setup process during which all dose calibrators, scanners, and gamma counters used in the sub-study were calibrated. Sites were allowed to enroll patients in the sub-study only after the completion and approval of all site setup processes by Invicro. Patients underwent SPECT/CT imaging, with anatomical coverage typically extending from the salivary glands to the pelvis, following the administration of a targeted 7.4±10% GBq of ^177Lu-PSMA-I&T at cycle 1. SPECT/CT imaging was performed at four timepoints: 4 h, 24 h, 48 h, and 168 h post-injection. Additionally, a subset of patients imaged at Cycle 1 (16 out of 27), were also imaged at Cycle 3 (Table 2).
Volume of interest (VOI) (kidneys, bladder, liver, lumbar vertebrae L2-L4, lacrimal glands, salivary glands [parotid and submandibular glands], and whole body) were delineated on each dataset by a trained image analyst. […] Organs were segmented either by drawing the entire contour of the organ, or by placing a sphere in a representative region of the organ and then multiplying by the organ's effective mass (based on patient's height and weight). Segmentation methods for each organ are specified in Table 3 and were consistently applied to each patient.
Clearance of the radiopharmaceutical was derived from a data-appropriate fit of each organ's TAC. Depending on the TAC's shape, the data was fitted with the sum of one, two, or three exponentials, or using a rise and fall model. Fitting was performed with in-house Python software. TIACs were calculated through analytical integration of the curve fit extrapolated to infinity. […] A whole-body TAC was derived from delineating the imaged body. The remainder activity was determined by subtracting the cumulative organ TIACs from the whole body TIAC.
Note: the time-activity curves in these figures are not decay-corrected to time of injection.
The whole-body time-activity curves were fitted with bi-exponential equation and the two components were used for the distribution and elimination half-life.

[1] = bi-exponential fit of whole-body time-activity curves, excluding patient 42-030

O=C([O-])CC[C@H](NC(=O)N[C@@H](CCCCNC(=O)CCCCCCC(=O)NCCCC[C@@H](NC(=O)[C@@H](Cc1ccccc1)NC(=O)[C@@H](Cc1ccc(O)c(I)c1)NC(=O)CC[C@H](C(=O)[O-])N1CCN(CC(=O)[O-])CCN(CC(=O)[O-])CCN(CC(=O)[O-])CC1)C(=O)[O-])C(=O)[O-])C(=O)[O-].[177Lu+3].[H+].[H+].[H+].[H+].[H+] [^177Lu-PSMA I&T, (3S,7S,26R,29R,32R,37R)-29-benzyl-32-(4-hydroxy-3-iodobenzyl)-5,13,20,28,31,34-hexaoxo-37-(4,7,10-tris(carboxymethyl)-1,4,7,10-tetraazacyclododecan-1-yl)-4,6,12,21,27,30,33-heptaazaheptatriacontane-1,3,7,26,37-pentacarboxylic acid; lutetium-177 (III)]
whole body mean activity retention at 4 h (averaged across patients excluding 42-030): 44%±13% | whole-body distribution half-life (mean) [1]: 2.16 ± 1.30 h | whole-body elimination half-life (mean) [1]: 46.29 ± 23.83 h | whole body activity retention at 4 h, max (excluding 42-030): 78% | whole body activity retention at 4 h, min (excluding 42-030): 24% | route of excretion (visible accumulation in the urinary bladder): primarily excreted through the urine

— US20250032651A1, “[177LU] LUTETIUM-PSMA I&T COMPOSITION AND DOSIMETRY, KIT, METHOD OF MAKING, AND METHOD OF USING THEREOF” (Curium US LLC, priority 2022, published 2025)
